From article PMC9071491, “Fragment screening and structural analyses highlight the ATP-assisted ligand binding for inhibitor discovery against type 1 methionyl-tRNA synthetase” (Nucleic Acids Research, 2022) come the findings set out here.

In experiment [1] the target is T1, SaMetRS (Staphylococcus aureus, UniProt P67578).
T1 construct: full-length SaMetRS (SaMetRS-FL) (residues 1–657) was expressed and purified in the same manner; made in house; host or cells: E. coli BL21 (DE3)
The experiment in a line: pretransfer editing assay (malachite green). It counts as biochemical. How it is done:
A pretransfer editing assay was employed to evaluate the enzymatic activity of MetRS and the inhibitory activity of fragments to this enzyme. MetRS uses ATP to misactivate the noncognate L-norleucine (L-Norleu) to produce norleucyl adenylate and pyrophosphate (PPi). Norleucyl adenylate was hydrolyzed in the active site through pretransfer editing, and PPi was hydrolyzed by pyrophosphatase (PPiase). The pretransfer editing activity of MetRS was evaluated by measuring phosphate ion (Pi) production using a malachite green assay ([40],[41]). The assays were performed in 80 μl reaction mixtures consisting of 160 nM SaMetRS-FL or SaMetRS-dC or HcMetRS-dN or HcMetRS-dN/C, 100 μM ATP, 20 mM L-Norleu and 50 μg/ml PPiase in reaction buffer (30 mM HEPES pH 7.5, 150 mM NaCl, 30 mM KCl, 40 mM MgCl2, 1 mM DTT) at room temperature ([42]). The pyrophosphates released from the pretransfer editing reaction were decomposed into phosphates by PPiase. Then, 20 μl of malachite green reagent (2.45 M sulfuric acid, 0.1% w/v malachite green, 1.5% w/v ammonium molybdate tetrahydrate, and 0.2% v/v Tween 20) was added to each reaction, and the absorbance at 620 nm was recorded using a Synergy H1 microplate reader.
To measure the inhibitory activity of compounds against SaMetRS, the reactions of an 80 μl mixture consisting of 160 nM SaMetRS-FL (or HcMetRS-dN), 100 μM ATP, 20 mM L-norleucine, 50 μg/ml PPiase and 1 mM fragment (or inhibitor at different concentrations) in reaction buffer were incubated at room temperature for 30 min. Then, 20 μl of malachite green reagent was added to each reaction, and absorbance at 620 nm was recorded. The absorbance at 620 nm of the reaction without adding a compound (fragment or inhibitor) was A1, the absorbance of the reaction without adding MetRS was A0, and the absorbance of the reaction with adding a compound (fragment or inhibitor) was AC. The inhibitory rates of compounds on enzyme activity = (A1 – AC)/(A1 – A0) ×100%. For compounds P80, P21 and REP8839, the inhibitory rates were measured at various concentrations, and the data were fitted in GraphPad Prism 8 using the ‘log[inhibitor] versus response’ equation to calculate the IC50 values.
The inhibitory rates of these fragments against SaMetRS were then tested by a pretransfer editing assay. In the assay, MetRS used ATP to misactivate noncognate L-norleucine (L-Norleu) to produce norleucyl adenylate and PPi. The norleucyl adenylate was then quickly hydrolyzed (or ‘edited’) by MetRS in a tRNA-independent manner ([53–55]). In addition, PPi is hydrolyzed by pyrophosphatase, and phosphate production reflects the activity of MetRS in L-Norleu misactivation and pretransfer editing.

Experiment [2] addresses T1, SaMetRS. Briefly: tRNA-dependent ATP consumption assay. The format is biochemical. The protocol:
(§1) The inhibitory activity of the compounds against the tRNA aminoacylation reaction of MetRS was evaluated by employing an ATP consumption assay ([43],[44]). In brief, 10 μl reactions consisting of 50 nM SaMetRS-FL or 100 nM HcMetRS-dN, 4 μM ATP, 500 μM L-Met, 0.5 mg/ml E. coli total tRNA in reaction buffer (30 mM HEPES pH 7.5, 150 mM NaCl, 30 mM KCl, 40 mM MgCl2, 0.1% BSA and 1 mM DTT) and compounds (P80, P21 and REP8839) at various concentrations were prepared and incubated at room temperature for 30 min. The reactions were then stopped by adding 10 μl of Kinase-Glo™ Reagent (Promega) and incubated at room temperature for 15 min. The luminescence, which reflects the concentration of the remaining ATP, was read on a Synergy H1 microplate reader (BioTek). The luminescence of the reaction without adding a compound was Lum1, the absorbance of the reaction without adding MetRS was Lum0, and the luminescence of the reaction with the added compound was LumC. The inhibitory rates of a compound on enzyme activity = (LumC – Lum1)/(Lum0 – Lum1) × 100%. The data were fitted in GraphPad Prism 8 with the ‘log[compound] versus response’ equation to calculate the IC50 values.

Experiment [3] concerns the target T2, HcMetRS (Homo sapiens, UniProt P56192).
T2 construct: a truncated HcMetRS without the N-terminal part (HcMetRS-dN) (residues 221–900); His6-SUMO (N, cleaved yes); made in house; host or cells: E. coli BL21 (DE3)
T2 sequence (P56192 221-900): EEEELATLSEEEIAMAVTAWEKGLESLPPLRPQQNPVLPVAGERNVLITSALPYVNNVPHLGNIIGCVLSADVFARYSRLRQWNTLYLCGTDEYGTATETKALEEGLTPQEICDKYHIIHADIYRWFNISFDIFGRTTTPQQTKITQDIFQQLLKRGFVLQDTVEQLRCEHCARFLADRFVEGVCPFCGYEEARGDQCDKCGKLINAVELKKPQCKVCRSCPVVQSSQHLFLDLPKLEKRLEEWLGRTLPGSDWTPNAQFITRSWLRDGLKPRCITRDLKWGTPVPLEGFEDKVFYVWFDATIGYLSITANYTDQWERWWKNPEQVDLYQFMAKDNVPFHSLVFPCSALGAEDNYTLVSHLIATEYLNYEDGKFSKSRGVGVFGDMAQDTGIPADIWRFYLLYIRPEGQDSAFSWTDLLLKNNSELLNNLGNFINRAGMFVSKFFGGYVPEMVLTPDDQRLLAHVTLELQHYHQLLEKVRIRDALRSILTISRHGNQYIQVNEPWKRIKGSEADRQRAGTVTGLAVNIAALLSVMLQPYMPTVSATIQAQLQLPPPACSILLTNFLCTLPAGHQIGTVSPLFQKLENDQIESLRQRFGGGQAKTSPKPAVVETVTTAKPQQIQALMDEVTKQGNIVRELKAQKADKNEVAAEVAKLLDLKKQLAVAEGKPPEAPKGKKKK
Briefly: tRNA-dependent ATP consumption assay. It counts as biochemical. The note with it: HcMetRS-dN, even at high concentrations. The protocol:
as §1

The target of experiment [4] is T1, SaMetRS. Briefly: biochemical. The format is binding. How it is done:
Ligand binding usually stabilizes the protein during the thermal denaturation process, and a tighter binder causes a larger positive shift in the protein melting temperature (Tm) ([38]). The binding of ligands to SaMetRS was evaluated by the fluorescence-based thermal shift assay as described ([39]). Briefly, mixtures with a final volume of 20 μl that contained 4 μg of SaMetRS-FL, 4 × SYPRO orange fluorescence dye (Sigma-Aldrich) and different ligands (10 μM REP8839, 5 mM L-Met, 5 mM ATP, or 1 mM fragments) in TSA buffer (100 mM Tris pH 8.0, 150 mM NaCl) were prepared in 96-well plates. The mixtures were incubated at 25°C for 10 min and then heated from 25°C to 95°C at a rate of 1°C/min. The fluorescence intensity was recorded every 20 s by using a StepOnePlus Real-Time PCR instrument (Life Technologies). The melting curves, using the fluorescence signal as the ordinate and the temperature as the abscissa, were fitted by using StepOne™ software v2.3 to obtain the melting temperature (Tm) of the protein. Triplicate assays were performed, and the average Tm values were used. The thermal stabilization of SaMetRS that was caused by a ligand (a fragment, substrate or inhibitor) was termed ΔTm, and it was calculated by subtracting the Tm of SaMetRS without the ligand from the Tm of SaMetRS supplemented with the ligand as follows:
Fragment screening is a fast-growing strategy for designing drugs with novel scaffolds as well as for identifying new druggable sites ([51],[52]). A total of 1049 fragments or low molecular weight natural products were screened by using TSA to search for new binders to SaMetRS. Considering the potential beneficial effect of ATP on ligand binding to SaMetRS, a parallel experiment was carried out using SaMetRS, which was saturated with 5 mM ATP. Fragments were diluted to a final concentration of 1.0 mM. The Tm of apo or ATP-bound SaMetRS without adding fragments was used as a blank control, and REP8839 was used as a positive control. We considered fragments that could increase the Tm value of SaMetRS by more than 1.0°C (ΔTm > 1.0°C) as positive hits (Figure 4B).

Experiment [5] concerns the target T1, SaMetRS. Briefly: isothermal titration calorimetry (ITC) assay. The format is binding. The protocol:
The affinities of ligands to SaMetRS were measured by using a MicroCal PEAQ-ITC microcalorimeter. […] The interval between two injections was 150 s. The disassociation constants (Kd) were determined by fitting the calorimetric data to a one-site binding model by using MicroCal PEAQ-ITC analysis software.
For orientation: In ITC the heat of successive injections is recorded.

Where [6] appears, read: read-out: ΔTm (°C) Tm(Frg)-Tm(apo).
Where [7] appears, read: read-out: ΔTm (°C) Tm(Frg+ATP)-Tm(ATP).

Read-outs that look alike come from different tables or passages of the source. A value given as a limit tells only on which side of the number the result lay.

T1 sequence (P67578 whole entry, the tested form may be a part): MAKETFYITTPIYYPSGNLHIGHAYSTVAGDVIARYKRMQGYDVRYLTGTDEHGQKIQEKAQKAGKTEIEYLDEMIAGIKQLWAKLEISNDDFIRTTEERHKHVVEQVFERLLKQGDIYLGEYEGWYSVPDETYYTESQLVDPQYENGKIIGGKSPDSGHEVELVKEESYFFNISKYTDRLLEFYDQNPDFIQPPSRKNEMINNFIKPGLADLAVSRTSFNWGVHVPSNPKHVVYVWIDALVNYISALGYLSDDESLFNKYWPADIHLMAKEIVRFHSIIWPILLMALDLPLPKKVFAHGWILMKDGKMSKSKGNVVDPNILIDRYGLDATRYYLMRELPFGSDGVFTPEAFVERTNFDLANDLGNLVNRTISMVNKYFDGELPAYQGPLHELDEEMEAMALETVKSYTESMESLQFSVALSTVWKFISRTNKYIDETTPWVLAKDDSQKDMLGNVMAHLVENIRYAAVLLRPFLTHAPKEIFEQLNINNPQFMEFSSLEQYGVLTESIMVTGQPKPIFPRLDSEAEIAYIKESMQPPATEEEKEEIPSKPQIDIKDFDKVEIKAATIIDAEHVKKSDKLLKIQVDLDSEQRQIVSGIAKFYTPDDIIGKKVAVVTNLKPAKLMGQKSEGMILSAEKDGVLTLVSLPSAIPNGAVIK

In the case of `CNC(=O)c1ccc2c(c1)nc(-c1ccc(Br)c(O)c1)n2C(CNC(=O)COc1ccccc1C(C)(C)C)c1ccc(OC)c(OC)c1` (centres unmarked) [P80], the half-inhibitory concentration (IC50) (as a rule, the concentration that inhibits the measured activity by half) worked out at 0.0946 ± 0.0067 µM in experiment [1] and 0.223 ± 0.0123 µM in experiment [2]. The “inhibition of HcMetRS” value in experiment [3] is “did not significantly inhibit”.

For the compound `O=[N+]([O-])c1ccc(O)c(O)c1` [A6], the inhibition at 1000 µM in experiment [1] (read-out: Inhibitory rate (%)) was less than 20%. The ΔTm (commonly the change in melting temperature against a reference sample) at 1000 µM in experiment [4] (setting [6]) was 1.1 °C; in experiment [4] (setting [7]), 1.2 °C.

Regarding `NC1Cc2ccccc2C1` [M2-80], in experiment [1] (read-out: Inhibitory rate (%)), the inhibition at 1000 µM is less than 20%. The ΔTm at 1000 µM was -0.1 °C in experiment [4] (setting [6]) and 2.5 °C in experiment [4] (setting [7]).

On to `O=[N+]([O-])c1ccc2[nH]ncc2c1` [B128], for which the inhibition at 1000 µM in experiment [1] (read-out: Inhibitory rate (%)) was found to be 30.4 ± 1.9%. Moreover, the ΔTm at 1000 µM worked out at 1.3 °C in experiment [4] (setting [6]) and 2.1 °C in experiment [4] (setting [7]).

In the case of `NCCNc1cccc2ccccc12` [M2-293], in experiment [1] (read-out: Inhibitory rate (%)), the inhibition at 1000 µM worked out at 67.3 ± 1.1%. The ΔTm at 1000 µM in experiment [4] (setting [7]) came to 1.3 °C.

For `C=C(F)c1sc(CNCCCNc2cc(O)c3ccccc3n2)c(C)c1Br` [REP8839, reference compound], the inhibition at 10 µM in experiment [1] (read-out: Inhibitory rate (%)) is more than 99%. Also, the shift in melting temperature (ΔTm) at 10 µM amounted to 11.8 °C in experiment [4] (setting [6]) and 17.5 °C in experiment [4] (setting [7]).

As for `N[C@@H]1C[C@@H]1c1ccccc1` [B54], the inhibition at 1000 µM in experiment [1] (read-out: Inhibitory rate (%)) is less than 20%.

As to `NCc1c[nH]c2ccccc12` [B63], the inhibition at 1000 µM in experiment [1] (read-out: Inhibitory rate (%)) stood at 38.2 ± 3.5%. Besides, the ΔTm at 1000 µM in experiment [4] (setting [6]) came out at 0.8 °C; in experiment [4] (setting [7]), 1.7 °C.

As to `Nc1nc2ccccc2[nH]1` [M1-68], the inhibition at 1000 µM in experiment [1] (read-out: Inhibitory rate (%)) is less than 20%. Besides, the ΔTm at 1000 µM stood at 0.1 °C in experiment [4] (setting [6]) and 1.3 °C in experiment [4] (setting [7]).

Turning to `CC(C)(C)Sc1cccnc1N` [T2-15], the inhibition at 1000 µM in experiment [1] (read-out: Inhibitory rate (%)) is 65.3 ± 3.1%. Besides, the Kd (in general, the equilibrium constant for the complex coming apart) amounted to 78.7 ± 7.1 µM in experiment [5] (SaMetRS apo, without ATP, 25°C, read-out: Kd, fragment to SaMetRS alone) and 54.6 ± 2.6 µM in experiment [5] (SaMetRS preincubated with 5 mM ATP, 25°C, read-out: Kd, fragment to SaMetRS saturated with ATP). Moreover, the ΔTm at 1000 µM in experiment [4] (setting [6]) and in experiment [4] (setting [7]) was 2.5 °C each time.

Take `CNC(=O)c1ccc2c(c1)nc(-c1ccc(Br)c(O)c1)n2C(CNC(=O)OCc1ccccc1)c1ccc(OC)c(OC)c1` (centres unmarked) [P21]: the IC50 in experiment [1] was determined as 0.428 ± 0.053 µM; in experiment [2] (50 nM SaMetRS-FL, 4 μM ATP, 500 μM L-Met, read-out: IC50, ATP consumption assay) it was 3.11 ± 0.48 µM. Moreover, in experiment [3], the “inhibition of HcMetRS” value is on record as “did not significantly inhibit”.

As to `Nc1ncnc2c1ncn2[C@@H]1O[C@H](COP(=O)(O)OP(=O)(O)OP(=O)(O)O)[C@@H](O)[C@H]1O` [ATP], the “fold more potent Kd of ATP with M3-88 premixed versus apo protein” value in experiment [5] (SaMetRS premixed with M3-88 vs apo) was “approximately 4 fold”. In addition, the Kd was 52 ± 6.7 µM in experiment [5] (apo protein, 25°C, read-out: Kd, ATP to SaMetRS) and 14.1 ± 0.7 µM in experiment [5] (read-out: Kd, ATP to SaMetRS saturated with M3-88, SaMetRS preincubated with 5 mM M3-88, 25°C).

In the case of `Clc1cn2ccsc2n1` [M3-146], the inhibition at 1000 µM in experiment [1] (read-out: Inhibitory rate (%)) is less than 20%. Also, the thermal shift (ΔTm) at 1000 µM was -0.1 °C in experiment [4] (setting [6]) and 1.8 °C in experiment [4] (setting [7]).
